In assay [1] the target is T1, human serum albumin (HSA) (Homo sapiens, UniProt P02768).
T1 construct: gene ALB
Kind of assay: UV-Vis absorption titration (Benesi-Hildebrand); dPhe marker displacement by fluorescence. The format is binding.

Assay [2] concerns the target T2, α-1-acid glycoprotein (AAG, orosomucoid) (Homo sapiens, UniProt P02763).
T2 construct: gene ORM1
Kind of assay: UV-Vis absorption titration (Benesi-Hildebrand); quinaldine red displacement by fluorescence. In kind it is binding.

T2 sequence (P02763 19-201): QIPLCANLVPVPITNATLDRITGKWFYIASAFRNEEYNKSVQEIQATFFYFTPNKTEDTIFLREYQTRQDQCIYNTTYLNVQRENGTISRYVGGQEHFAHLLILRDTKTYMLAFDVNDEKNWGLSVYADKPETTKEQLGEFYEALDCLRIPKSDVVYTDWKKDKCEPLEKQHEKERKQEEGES
T1 sequence (P02768 25-609): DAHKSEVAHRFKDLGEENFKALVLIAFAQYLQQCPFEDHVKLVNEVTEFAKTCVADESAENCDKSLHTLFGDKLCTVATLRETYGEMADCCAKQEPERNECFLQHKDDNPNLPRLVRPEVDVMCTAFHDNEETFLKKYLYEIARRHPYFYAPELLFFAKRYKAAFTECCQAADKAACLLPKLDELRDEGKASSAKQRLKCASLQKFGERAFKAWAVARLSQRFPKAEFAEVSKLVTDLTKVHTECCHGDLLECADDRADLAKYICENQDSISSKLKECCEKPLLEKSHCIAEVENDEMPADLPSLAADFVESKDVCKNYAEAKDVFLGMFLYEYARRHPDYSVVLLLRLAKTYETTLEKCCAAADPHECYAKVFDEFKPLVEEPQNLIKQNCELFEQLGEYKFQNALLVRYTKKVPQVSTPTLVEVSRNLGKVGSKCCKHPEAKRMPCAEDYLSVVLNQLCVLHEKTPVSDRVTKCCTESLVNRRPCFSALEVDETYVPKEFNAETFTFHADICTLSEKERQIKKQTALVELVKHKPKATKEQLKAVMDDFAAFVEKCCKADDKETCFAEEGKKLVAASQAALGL

As to `COc1ccc2c(c1OC)CN(C)CCc1cc3c(cc1C(=O)C2)OCO3` [ACP, allocryptopine], the Kd is 19.9 µM in assay [1] and 44.6 µM in assay [2] (read-out: Kapp.10^4 [dm^3mol^-1] (converted)).

In assay [1], `CN1CCc2cc3c(cc2C(=O)Cc2ccc4c(c2C1)OCO4)OCO3` [PP, protopine] showed a Kd of 46.9 µM. The “Kapp.10^4 [dm^3mol^-1]” value in assay [2] is 1.34 ± 0.0.03.

(Values after paper PMC11121924, “Protopine and Allocryptopine Interactions with Plasma Proteins” (International Journal of Molecular Sciences, 2024).)
